Results published in publication PMC5581131, “The novel sphingosine-1-phosphate receptors antagonist AD2900 affects lymphocyte activation and inhibits T-cell entry into the lymph nodes” (Oncotarget, 2017).

Test system: human PBMCs
Test: 5-day MLR with Et-18-OCH3, BAPTA-AM or 8-bromo-cAMP preincubation, analogues present throughout
Type: cell-based
Conditions: 2 μM; 1 hour preincubation with the inhibitors
Protocol: To determine whether the effect of inhibition of AD2900 on PBMC proliferation is dependent on the same signal transduction pathways, we next examined the capacities of the intracellular Ca^2+ chelator-BAPTA-AM, phosphatidylinositol-specific PLC inhibitor-Et-18-OCH3, and cell-permeate exogenous cAMP-8-bromo-cAMP to alter the suppressive effect of AD2900 and FTY720 on PBMC proliferation. S1P served as a positive control (Figures 2A, 2B, and 2C, respectively). PBMCs were pre-incubated for 1 hour with the inhibitors before the addition of 2 μM AD2900, FTY720, or S1P in the MLR experiment. The inhibitors and the analogues were present in the culture throughout the allogeneic activation. AD2900 suppression of PBMC proliferation was reduced from 59% ± 3% to 32% ± 7% by the exogenous cAMP. BAPTA-AM also partially reversed AD2900 suppression of PBMC proliferation from 59% ± 3% to 32% ± 3%, yet Et-18-OCH3 had no effect (Figure 2A).
Figure 2 Effect of AD2900 on proliferation is dependent on cAMP reduction and calcium signal transduction The effect of Edelfosine (Et-18-OCH3) (Et), BAPTA-AM (BAPTA), or 8-bromo-cAMP (8-b-CAMP) on the inhibition of PBMC proliferation was tested in a 5-day MLR experiment. The cells were incubated with 1 μM Edelfosine, 0.2 μM BAPTA-AM, or 5 μM 8-bromo-cAMP for 1 hour before the addition of sphingolipid analogues, 2 μM AD2900 (AD) (A), FTY720 (FTY) (B), or S1P (C). Significances are compared to AD2900/FTY/S1P without preincubation, respectively. Graphs summarize the results of at least four independent experiments. Results of Student’s t-test: *(P < 0.05, two-tailed test), ** (P < 0.01, two-tailed test).
Human PBLs were collected from human whole blood collected from healthy donors. Subsequently, the cells were centrifuged on a Ficoll-Paque gradient (Fresenius Kabi Norge AS, Oslo, Norway) and were isolated from the interphase layer. For the human MLR experiment, PBMCs from one healthy donor were pretreated for 1 day with AD2900, AD2730, AD2750, YZ297, YZ158, FTY720, or SEW2871. After 24 h, cells were washed and plated at a concentration of 5 × 10^4 cells/well in round bottom 96-well plates containing RPMI-1640 medium Supplemented with 10% human AB serum, 1% penicillin/streptomycin, and 1% l-glutamine (Beit Haemek, Israel). PBMCs from a second donor were irradiated at 3000 γ dosage and added to the plate in a 1:1 ratio with the first donor cells. The cells were cultured for 5 days. For the thymidine incorporation assay, after 4 days of co-culture, cells were pulsed with ^3H-thymidine at 1 μCi (0.037MBq) per well (PerkinElmer, MA, USA) for 16 additional hours and then harvested onto glass-fiber filters. ^3H-thymidine incorporation was measured using Top Count. NXT (PerkinElmer, UK). In other experiments, the supernatant was harvested after 5 days of co-culture for IFN-γ and TNF-α cytokine ELISA measurements (eBioscience, CA, USA). The cells were then collected for assessing apoptosis by FACS in MACSQuant analyzer (Miltenyi Biotech, Germany). In another set of experiments, the PBMCs of two donors were mixed. Sphingolipid analogues were then added to the culture and sustained through the 5 days of the MLR experiment.

In the case of `CCCCCCCCCCCCC/C=C/[C@@H](O)[C@@H](N)COP(=O)(O)O` [S1P, Sphingosine-1-phosphate], the “effect of Et-18-OCH3, BAPTA-AM and 8-bromo-cAMP on suppression of PBMC proliferation” value is reported as “reversed by all three inhibitors”.
